# Reference: patent US8426588B2, “Phenylalanine derivatives” (Ajinomoto Co, Inc., priority 2000, dated 2013)
# Assays:
# integrin α4β1 = molecular target: T1, integrin α4β1 (Homo sapiens, UniProt P05556+P13612); experiment: VCAM antagonist activity (VCAM-1/α4β1 binding assay), Jurkat cells binding to VCAM-1; assay type: cell-based; conditions: Jurkat human T cells binding to recombinant human VCAM-1; read-out: VCAM antagonistic activity (IC50) α4β1
# T1 construct: cell strain Jurkat (ATCC TIB-152) of human T cells, known to express integrin α4β1; endogenous in cells; host or cells: Jurkat (ATCC TIB-152)
# T1 sequence (P05556 21-798, one chain of several): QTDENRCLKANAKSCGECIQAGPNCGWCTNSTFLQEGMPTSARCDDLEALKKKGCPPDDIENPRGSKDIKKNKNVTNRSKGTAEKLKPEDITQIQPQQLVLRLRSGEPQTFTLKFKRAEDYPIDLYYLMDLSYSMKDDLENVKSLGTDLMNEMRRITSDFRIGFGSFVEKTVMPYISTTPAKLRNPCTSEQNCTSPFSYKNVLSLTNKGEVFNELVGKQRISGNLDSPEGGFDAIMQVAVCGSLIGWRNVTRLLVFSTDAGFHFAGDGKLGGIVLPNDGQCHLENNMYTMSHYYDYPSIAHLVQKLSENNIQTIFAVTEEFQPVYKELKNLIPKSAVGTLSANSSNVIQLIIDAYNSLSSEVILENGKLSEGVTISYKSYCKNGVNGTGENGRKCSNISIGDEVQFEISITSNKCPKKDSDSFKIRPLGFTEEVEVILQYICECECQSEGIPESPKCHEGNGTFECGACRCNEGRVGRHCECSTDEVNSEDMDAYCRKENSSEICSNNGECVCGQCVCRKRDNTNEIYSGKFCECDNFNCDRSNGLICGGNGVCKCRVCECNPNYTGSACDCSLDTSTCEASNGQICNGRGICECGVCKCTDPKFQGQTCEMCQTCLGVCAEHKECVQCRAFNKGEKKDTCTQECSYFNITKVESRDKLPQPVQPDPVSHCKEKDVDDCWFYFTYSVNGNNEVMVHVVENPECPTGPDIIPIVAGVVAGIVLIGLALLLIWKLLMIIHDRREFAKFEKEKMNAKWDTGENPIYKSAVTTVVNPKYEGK
# Method: VCAM Antagonist Activity (VCAM-1/α4β1 Binding Assay)
# The capacity of a test substance antagonistic to the binding of cell strain Jurkat (ATCC TIB-152) of human T cells, known to express integrin α4β1, to VCAM-1 was determined.
# (§1) 100 μl/well of a solution (500 ng/ml) of recombinant human VCAM-1 (R & D systems) solution diluted with buffer A (0.1 M NaHCO3, pH 9.6) was added to a micro titer plate having 96 wells (Nunc Maxisorp). After the incubation at 4° C. overnight, unbound VCAM-1 was removed by washing once with PBS. After completion of the washing, a buffer (buffer B) obtained by diluting Block Ace (Dainippon Pharmaceutical Co., Ltd.) with PBS to ¼ concentration was added in an amount of 150 μl/well. After the incubation at room temperature for 1 hour, buffer B was removed and the plate was washed with PBS once.
# Jurkat cells were washed with Dulbecco modified Eagle medium (SIGMA, hereinafter referred to as “DMEM”) twice and then incubated in DMEM containing 10 μg/ml of Calcein-AM (Wako Pure Chemical Industries, Ltd.) at 37° C. in dark place for 30 minutes to label with fluorescence. The cells were again suspended in a binding buffer (20 mM HEPES, DMEM containing 0.1% BSA).
# (§2) 50 μl of a test substance of various concentrations obtained by the dilution with the binding buffer was added to the plate. Immediately thereafter, 50 μl (final volume: 100 μl/well) of the fluorescent Jurkat cells (4×10^6 cells/ml) were added thereto, and they were incubated in dark place at room temperature for 30 minutes. After the shaking on a plate shaker (IKA MTS-4) at 800 rpm for 30 seconds, the solution was immediately removed to remove the unbound cells. The fluorescence quantity of the bound cells remaining in the wells was determined with a fluorescent plate reader (Wallac 1920 ARVO multi-label counter) (filter excitation wave length: 485 nm, emission wave length: 535 nm). The fluorescent strength thus obtained is proportional to the number of Jurkat cells bound to VCAM-1 and remaining on the plate. The binding rate of each test material in various concentrations was determined while the fluorescent strength of the test material-free well was determined to be 100%.
# integrin α4β7 = molecular target: T2, integrin α4β7 (Homo sapiens, UniProt P13612+P26010); experiment: VCAM antagonistic activity (VCAM-1/α4β7 binding assay), RPMI-8866 cells binding to VCAM-1; assay type: cell-based; conditions: RPMI-8866 human B lymphoma cells binding to recombinant human VCAM-1; binding buffer with 4 mM MnCl2
# T2 construct: lymphoma cell strain RPMI-8866 of human B cells, known to express integrin α4β7; endogenous in cells; host or cells: RPMI-8866
# T2 sequence (P13612 34-1032): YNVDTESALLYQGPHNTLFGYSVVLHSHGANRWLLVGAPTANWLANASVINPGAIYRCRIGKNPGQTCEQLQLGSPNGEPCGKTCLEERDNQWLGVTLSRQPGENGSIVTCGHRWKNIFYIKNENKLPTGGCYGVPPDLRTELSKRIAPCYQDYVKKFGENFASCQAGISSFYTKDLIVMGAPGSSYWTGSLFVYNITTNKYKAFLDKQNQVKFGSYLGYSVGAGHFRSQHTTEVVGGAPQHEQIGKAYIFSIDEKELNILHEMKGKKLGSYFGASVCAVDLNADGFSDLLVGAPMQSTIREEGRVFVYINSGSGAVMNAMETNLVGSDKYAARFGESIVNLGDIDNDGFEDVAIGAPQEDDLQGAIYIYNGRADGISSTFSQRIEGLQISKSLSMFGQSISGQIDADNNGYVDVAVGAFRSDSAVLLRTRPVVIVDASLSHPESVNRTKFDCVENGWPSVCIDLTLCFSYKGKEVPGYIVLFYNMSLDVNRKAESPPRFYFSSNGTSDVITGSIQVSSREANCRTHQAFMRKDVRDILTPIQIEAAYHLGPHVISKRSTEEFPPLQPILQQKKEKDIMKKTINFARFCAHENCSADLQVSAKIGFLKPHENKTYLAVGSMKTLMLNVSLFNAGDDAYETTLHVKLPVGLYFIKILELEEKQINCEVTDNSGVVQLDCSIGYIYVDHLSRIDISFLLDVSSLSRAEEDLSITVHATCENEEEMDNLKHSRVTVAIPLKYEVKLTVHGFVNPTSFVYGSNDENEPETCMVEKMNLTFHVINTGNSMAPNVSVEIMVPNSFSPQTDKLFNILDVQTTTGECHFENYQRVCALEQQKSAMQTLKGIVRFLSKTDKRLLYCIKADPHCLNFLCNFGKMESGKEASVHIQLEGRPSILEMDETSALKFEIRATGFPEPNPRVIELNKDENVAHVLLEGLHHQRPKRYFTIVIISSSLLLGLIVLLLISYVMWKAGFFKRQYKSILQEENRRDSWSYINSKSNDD
# T2 sequence (P26010 20-798): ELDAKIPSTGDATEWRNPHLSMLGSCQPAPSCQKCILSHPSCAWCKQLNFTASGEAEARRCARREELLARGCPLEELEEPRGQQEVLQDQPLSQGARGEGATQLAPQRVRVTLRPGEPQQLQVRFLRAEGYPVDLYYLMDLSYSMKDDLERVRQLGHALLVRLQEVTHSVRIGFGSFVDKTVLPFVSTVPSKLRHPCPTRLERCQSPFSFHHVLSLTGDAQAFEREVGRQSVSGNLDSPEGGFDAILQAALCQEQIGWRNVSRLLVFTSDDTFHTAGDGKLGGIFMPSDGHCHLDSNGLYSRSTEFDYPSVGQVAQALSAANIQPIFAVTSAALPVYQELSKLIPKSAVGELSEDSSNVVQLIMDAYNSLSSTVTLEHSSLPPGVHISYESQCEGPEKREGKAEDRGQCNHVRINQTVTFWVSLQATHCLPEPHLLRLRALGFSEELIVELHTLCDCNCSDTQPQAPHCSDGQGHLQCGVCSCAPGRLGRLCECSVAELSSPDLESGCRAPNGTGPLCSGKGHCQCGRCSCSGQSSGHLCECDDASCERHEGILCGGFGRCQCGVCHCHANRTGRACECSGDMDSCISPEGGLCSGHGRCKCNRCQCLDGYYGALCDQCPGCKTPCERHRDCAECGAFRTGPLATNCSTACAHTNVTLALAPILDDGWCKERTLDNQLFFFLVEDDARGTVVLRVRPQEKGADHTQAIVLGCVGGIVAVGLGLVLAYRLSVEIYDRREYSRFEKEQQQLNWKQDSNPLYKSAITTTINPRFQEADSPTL
# Method: VCAM Antagonistic Activity (VCAM-1/α4β7 Binding Assay)
# The capacity of a test substance antagonistic to the binding of lymphoma cell strain RPMI-8866 of human B cells, known to express integrin α4β7, to VCAM-1 was determined.
# as §1
# RPMI-8866 cells were washed with DMEM twice and incubated in Dulbecco modified Eagle medium containing 10 μg/ml of Calcein-AM (Wako Pure Chemical Industries, Ltd.) (SIGMA, hereinafter referred to as “DMEM”) in dark place at 37° C. for 30 minutes to label with fluorescence. The cells were again suspended in a binding buffer (20 mM HEPES, DMEM containing 0.1% BSA) containing 4 mM of MnCl2.
# as §2, with “RPMI-8866” for “Jurkat”, “1420” for “1920”
SMILES,IC50 (integrin α4β1) [nM],IC50 (integrin α4β7) [nM]
CCN(CC)c1ccc2c(c1)c(=O)n(-c1ccc(C[C@H](NC(=O)c3c(Cl)cccc3Cl)C(=O)O)cc1)c(=O)n2C [Example 111],88,11
CN1CCC(=O)N(c2ccc(C[C@H](NC(=O)c3c(Cl)cccc3Cl)C(=O)O)cc2)C1=O [Example 135],570,12
Nc1ccc2c(=O)n(-c3ccc(C[C@H](NC(=O)c4c(Cl)cccc4Cl)C(=O)O)cc3)c(=O)oc2c1 [Example 142],210,9
CN1C(=O)N(c2ccc(C[C@H](NC(=O)c3c(Cl)cccc3Cl)C(=O)O)cc2)Cc2ccccc21 [Example 147],107,6.5
Cc1cccc2c1c(=O)n(-c1ccc(C[C@H](NC(=O)c3c(Cl)cccc3Cl)C(=O)O)cc1)c(=O)n2C [Example 181],15,1
Cn1c(=O)n(-c2ccc(C[C@H](NC(=O)c3c(Cl)cccc3Cl)C(=O)O)cc2)c(=O)c2cc(Cl)ccc21 [Example 183],25,1.7
Cn1c(=O)n(-c2ccc(C[C@H](NC(=O)c3c(Cl)cccc3Cl)C(=O)O)cc2)c(=O)c2c(Cl)cccc21 [Example 187],26,3.2
Cn1c(=O)n(-c2ccc(C[C@H](NC(=O)c3c(Cl)cccc3Cl)C(=O)O)cc2)c(=O)c2cc(F)ccc21 [Example 189],18,1.1

# Continued by falling IC50 (integrin α4β1), values first:
IC50 (integrin α4β1) [nM],IC50 (integrin α4β7) [nM],SMILES
2120,11.2,O=C(N[C@@H](Cc1ccc(-n2c(=O)oc3c(ccc4ccccc43)c2=O)cc1)C(=O)O)c1c(Cl)cccc1Cl [Example 137]
565,3,O=C(N[C@@H](Cc1ccc(-n2c(=O)oc3ccccc3c2=O)cc1)C(=O)O)c1c(Cl)cccc1Cl [Example 136]
480,19,O=C(N[C@@H](Cc1ccc(-n2c(=O)c3ccccc3n(Cc3ccc(Cl)cc3)c2=O)cc1)C(=O)O)c1c(Cl)cccc1Cl [Example 117]
113,6.2,Cn1c(=O)n(-c2ccc(C[C@H](NC(=O)c3c(Cl)cccc3Cl)C(=O)O)cc2)c(=O)c2cccc(Cl)c21 [Example 182]
107,17,COc1ccc2c(=O)n(-c3ccc(C[C@H](NC(=O)c4c(Cl)cccc4Cl)C(=O)O)cc3)c(=O)oc2c1 [Example 139]
86,5.4,COc1cccc2c(=O)n(-c3ccc(C[C@H](NC(=O)c4c(Cl)cccc4Cl)C(=O)O)cc3)c(=O)n(C)c12 [Example 180]
59,4.3,Cc1cccc2c(=O)n(-c3ccc(C[C@H](NC(=O)c4c(Cl)cccc4Cl)C(=O)O)cc3)c(=O)n(C)c12 [Example 186]
52,1.6,Cn1c(=O)n(-c2ccc(C[C@H](NC(=O)c3c(Cl)cccc3Cl)C(=O)O)cc2)c(=O)c2cc([N+]3(C)CCCC3)ccc21 [Example 113]
31,3.3,COc1ccc2c(c1)c(=O)n(-c1ccc(C[C@H](NC(=O)c3c(Cl)cccc3Cl)C(=O)O)cc1)c(=O)n2C [Example 184]
17,1.1,Cn1c(=O)n(-c2ccc(C[C@H](NC(=O)c3c(Cl)cccc3Cl)C(=O)O)cc2)c(=O)c2cc(N)ccc21 [Example 107]
12,2.7,Cn1c(=O)n(-c2ccc(C[C@H](NC(=O)c3c(Cl)cccc3Cl)C(=O)O)cc2)c(=O)c2ccc(C(F)(F)F)cc21 [Example 185]
11,2.7,COc1cc2c(=O)n(-c3ccc(C[C@H](NC(=O)c4c(Cl)cccc4Cl)C(=O)O)cc3)c(=O)n(C)c2cc1OC [Example 188]
